According to patent EP0061056A1, “5,6-Dimethylpyrrolo (2,3-b) pyridines, process for their preparation and their use as medicaments” (Troponwerke GmbH & Co. KG, priority 1981, dated 1982):
Like-named read-outs stand apart in the source and are kept apart here.

Tested on: Kaolinödem der Rattenpfote
Assay: Kaolin-induced rat paw oedema (inhibition of inflammation)
Format: in vivo, Ratte
Settings: kaolin oedema of the rat paw
Experimental: Die tierexperimentelle Prüfung der erfindungsgemäßen Verbindungen ergab, daß ein Teil dieser Substanzen sedative und antikonvulsive Eigenschaften besitzt. Darüber hinaus führen sie auch zu einer Hemmung der Entzündung, gemessen an der Beeinflussen des Pfotenödems der Ratte nach Kaolininjektion.
Bei oraler Applikation zeigen die erfindungsgemäßen Verbindungen eine signifikante entzündungshemmende Wirkung am Kaolinödem der Rattenpfote nach Gaben von 25 mg/kg. Bei intramuskulärer Applikation zeigen die Verbindungen bereits bei Dosierung von 10 mg/kg eine deutliche Hemmung der Entzündung. Für die Verbindung des Beispiels 1 beträgt die DE 50 bei oraler Applikation 68 mg/kg und die DE50 bei intramuskulärer Applikation 0,9 mg/kg.

Compound: Cc1c(C)n(-c2ccccc2)c2nccc(N)c12 [Beispiel 1, 4-Amino-5,6-dimethyl-7-phenyl-pyrrolo[2,3-b]-7-pyridin]
- ED50 (im, intramuscular application, read-out: DE50 (the source's name)): 0.9 mg/kg
- ED50 (oral application, read-out: DE 50 (the source's name)): 68 mg/kg
